Measured values taken from patent publication US20240050033A1, “PERFUSION DEVICE FOR EVALUATING BLOOD PARAMETERS” (SEDICIDODICI S.R.L., priority 2020, published 2024).

Legend:
[1] = tested on: platelets; test: ex-vivo dynamic evaluation of platelet aggregate formation in a whole-blood sample flowing through a perfusion chamber (fluorescence imaging); type: cell-based, human; conditions: mean value, blood of subjects under the therapy; 8-bit acquisition system
Excerpt: (§1) The present invention firstly relates to a method for the dynamic “ex-vivo” evaluation of the coagulation process in a patient's blood sample, characterized in that such a method comprises the simultaneous determination on the same blood sample of both the time, quantity and speed of platelet aggregate formation and of fibrin formation time, quantity and speed.
According to some embodiments, the method of the invention comprises the following steps: • a) providing a whole-blood sample taken from a subject and added with an anti-coagulant substance; • b) treating the blood sample of step a) with a solution consisting of fluorescent probes for marking platelets and fibrin capable of binding more or less specifically to platelets and fibrin and emitting fluorescent light on two different emission frequencies and of a recalcification solution of the blood sample. […]

[2] = tested on: fibrin; test: ex-vivo dynamic evaluation of fibrin formation in a whole-blood sample flowing through a perfusion chamber (fluorescence imaging); type: cell-based, human; conditions: mean value, blood of subjects under the therapy; 8-bit acquisition system
Excerpt: as §1
According to some embodiments, the method of the invention comprises the following steps: • a) providing a whole-blood sample taken from a subject and added with an anti-coagulant substance; • b) treating the blood sample of step a) with a solution consisting of fluorescent probes for marking platelets and fibrin capable of binding more or less specifically to platelets and fibrin and emitting fluorescent light on two different emission frequencies and of a recalcification solution of the blood sample. The two aforesaid solutions can also be combined in a single solution or single reagent; • c) introducing said recalcified blood sample into an analytical device having at least one perfusion chamber, in which at least one wall consists of a transparent material comprising a cytoadhesive substance, the blood sample being made to flow into the perfusion chamber in known and measurable flow conditions; • d) during the blood flow in the perfusion chamber, alternately acquiring at least two series of fluorescence images, so that at least one series of fluorescence images is acquired at an emission wavelength characteristic of the fluorescent probe for platelets and at least one other series of fluorescence images is acquired at another emission wavelength characteristic of the fluorescent probe for fibrin; • e) binarizing the pixels of the acquired images for the platelets and for the fibrin, so as to generate a first curve of area covered by illuminated pixels vs. time (t) for the formation of a platelet aggregate and a second curve of area covered by illuminated pixels vs. time for the fibrin formation; • f) generating a first curve of average fluorescence intensity vs. time for the formation of the platelet aggregate and a second curve of average fluorescence intensity vs. time for the fibrin formation; • in which the method comprises at least one of the following steps: • g) generating a first integrated density curve defined as the product of area and fluorescence intensity vs. time for the formation of the platelet aggregate and a second integrated density curve defined as the product of area and fluorescence intensity vs. time for the fibrin formation; • h) generating a curve of particle number vs. time, in which the number of particles is given by the number of platelet aggregates consisting of more than 2 illuminated pixels; • i) generating a curve of particle size vs. time, in which the particle size is given by the average size of the platelet aggregates consisting of more than 2 illuminated pixels; • j) generating values of maximum slope, defined as the relative maximum points of the first derivative function calculated for the curves of the parameter obtained in said at least one step e), f), g), h) and i); • k) generating values of maximum acceleration, defined as the relative maximum points of the second derivative function calculated for the curves of the parameter obtained in said at least one step e), f), g), h) and i); • l) generating values of F/P ratio, defined as the ratio of the AUCs of fibrin to the AUCs of the platelets of the parameter obtained in said at least one step e), f) and g); • the method further comprising the steps of: • m) generating a lag time value representing the fibrin formation time defined as the time corresponding to the first occurrence of five consecutive images in which the value of the measured area related to fibrin is >1% of the maximum peak value of the curve; • n) generating AUC (Area Under the Curve) values given by the area under the curve of each parameter obtained in steps e), f), g), h) and i). […]

## CC(=O)Oc1ccccc1C(=O)O [ASA, acetylsalicylic acid]
[1]
  Platelets AUC Area (area under the curve of the area curve): 3.4 ×10^7
  Platelets AUC ID (area under the curve of the integrated density curve): 3.0 ×10^9
  Platelets AUC MGV (area under the curve of the fluorescence intensity curve): 2.0 ×10^4
[2]
  F/P Area (AUC Area ratio of fibrin to platelets): 1.0
  F/P ID (AUC ID ratio of fibrin to platelets): 2.2
  F/P MGV (AUC MGV ratio of fibrin to platelets): 1.2
  Fibrin AUC Area (area under the curve of the area curve): 3.0 ×10^7
  Fibrin AUC ID (area under the curve of the integrated density curve): 4.3 ×10^9
  Fibrin AUC MGV (area under the curve of the fluorescence intensity curve): 2.0 ×10^4
  Lag Time (fibrin formation time): 267.5 s
